Test results taken from patent US12435066B2, “Substituted tricyclic compounds” (LUPIN LIMITED, priority 2019, dated 2025).

Experiments:
[1] = target: T1, hSOS1 and hKRASG12C (Homo sapiens, UniProt Q07889); test: biochemical
T1 sequence (Q07889 564-1049): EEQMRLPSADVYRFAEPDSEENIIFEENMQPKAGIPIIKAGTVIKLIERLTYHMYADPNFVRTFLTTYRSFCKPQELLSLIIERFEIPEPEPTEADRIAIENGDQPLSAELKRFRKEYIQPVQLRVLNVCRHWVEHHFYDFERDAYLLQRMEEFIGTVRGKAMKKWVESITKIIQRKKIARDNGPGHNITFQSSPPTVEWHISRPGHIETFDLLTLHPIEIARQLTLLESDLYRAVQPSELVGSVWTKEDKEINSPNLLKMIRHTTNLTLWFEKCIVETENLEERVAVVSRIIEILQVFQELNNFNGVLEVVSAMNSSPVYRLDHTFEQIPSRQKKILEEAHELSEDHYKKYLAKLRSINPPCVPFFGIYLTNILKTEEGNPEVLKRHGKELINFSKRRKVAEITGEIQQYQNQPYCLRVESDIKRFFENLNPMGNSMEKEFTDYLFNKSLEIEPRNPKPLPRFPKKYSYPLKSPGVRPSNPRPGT
Protocol: Interaction assay was conducted to evaluate the ability of the compounds to disrupt the protein-protein interactions between hSOS1 and hKRASG12C. Inhibitory effect of compounds on GST-hSOS1, 564-1049aa expressed and purified in-house and HIS-hKRASG12C (R06-32DH, SignalChem) interaction was assessed using HTRF detection technology in biochemical assay. Compounds were pre-incubated with 10-50 nM working solution of hSOS1 per well of a 384 well plate (Perkin Elmer, Cat #6007290) for 10 min at 20° C. in the assay buffer containing 5 mM HEPES, pH 7.4, 150 mM NaCl, 10 mM EDTA, 1 mM DTT, 0.05% BSA fraction V and 0.0025% Igepal. Reaction was initiated by adding 100-300 nM working solution of hKRASG12C in assay buffer. Total assay volume was 15 μL. Reaction was continued for 30-60 min at 20° C. Then detection solution containing MAb Anti-GST-d2 (#61GSTDLA, Cisbio BioAssays) and MAb Anti-HIS-Tb (#61HISTLA, Cisbio BioAssays), all prepared in HTRF detection buffer (#61DB10RDF, Cisbio BioAssays) was added and further incubated for 30-60 min at 20° C. HTRF signal was recorded in PHERAStar microplate reader. Ratio of signal obtained at 665 nm and 620 nm was used to compute the percent inhibition of compound utilizing the following formula:
Positive control=hSOS1+hKRASG12C+MAb Anti-GST-d2+Mab Anti-HIS-Tb Negative control=hKRASG12C+MAb Anti-GST-d2+MAb Anti-HIS-Tb

[2] = target: T2, hSOS1 mediated nucleotide exchange on hKRASG12C (Homo sapiens, UniProt Q07889); test: biochemical
T2 sequence (Q07889 564-1049): T1 sequence (Q07889 564-1049)
Protocol: Example-127: Guanine Nucleotide Exchange Assay (GNEA)
GNEA assay was conducted to evaluate the effects of compounds on the nucleotide exchange on hKRASG12C mediated by hSOS1. Inhibitory effect of compounds on HIS-hSOS1, 564-1049aa mediated GTP loading onto GST-hKRASG12C, 1-169aa both expressed and purified in-house was assessed using HTRF detection technology in biochemical assay. Compounds were pre-incubated with hSOS1 working solution containing 10-50 nM hSOS1 and 200 nM EDA-GTP-DY-647P1 (Custom manufactured, Jena Biosciences) per well of a 384 well plate (Perkin Elmer, Cat #6007290) for 10 min at 20° C. in the assay buffer containing 10 mM HEPES, pH 7.4, 150 mM NaCl, 5 mM MgCl2, 1 mM DTT, 0.05% BSA fraction V and 0.0025% Igepal. Reaction was initiated by adding working solution of hKRASG12C containing 25-125 nM hKRASG12C and MAb Anti-GST-Tb (#61GSTTLA, Cisbio BioAssays) in assay buffer. Total assay volume was 15 μL. Reaction was continued for 30-60 min at 20° C. HTRF signal was recorded in PHERAStar microplate reader. Ratio of signal obtained at 665 nm and 620 nm was used to compute the percent inhibition of compound as follows.
Where, Positive control=hSOS1+EDA-GTP-DY-647P1+hKRASG12C+MAb Anti-GST-Tb Negative control=EDA-GTP-DY-647P1+hKRASG12C+MAb Anti-GST-Tb

[3] = test system: pERK in DLD1 cells; test: ERK phosphorylation assay after EGF stimulation; assay type: cell-based; conditions: Homo sapiens, DLD-1, compound 2 h, 200 ng/ml hEGF 5 minutes, alphascreen pERK, read-out: ERK phosphorylation inhibition IC50
Procedure, shortened: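 DLD1 cells pretreated 2 h with compound, then stimulated 5 minutes with 200 ng/ml hEGF. Lysates assayed for ERK1/2 p-T202/Y204 by AlphaScreen SureFire, read after 2 h at 25-28° C.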

SMILES: COCC1CN(c2cc3c(N[C@H](C)c4cc(N)cc(C(F)(F)F)c4)nc(C)nc3c3c2CCC3)C1 [Compound 26, (R)—N-(1-(3-amino-5-(trifluoromethyl)phenyl)ethyl)-6-(3-(methoxymethyl)azetidin-1-yl)-2-methyl-8,9-dihydro-7H-cyclopenta[h]quinazolin-4-amine]
- IC50 [1]: 1 to 10 nM
- IC50 [2]: 31 to 70 nM
- IC50 [3]: 1 to 200 nM

SMILES: Cc1nc(N[C@H](C)c2cccc(C(F)(F)C(C)(C)O)c2F)c2cc(N3CC[C@@](C)(O)C3)c3c(c2n1)CCC3 (single isomer, unassigned) [Compound 61a]
- IC50 [1]: 1 to 10 nM
- IC50 [2]: 1 to 30 nM
- IC50 [3]: 1 to 200 nM

SMILES: Cc1nc(N[C@H](C)c2cc(N)cc(C(F)(F)F)c2)c2cc(N3CC4(CC(O)C4)C3)c3c(c2n1)CCC3 [Compound 52, (R)-2-(4-((1-(3-amino-5-(trifluoromethyl)phenyl)ethyl)amino)-2-methyl-8,9-dihydro-7H-cyclopenta[h]quinazolin-6-yl)-2-azaspiro[3.3]heptan-6-ol]
- IC50 [1]: 1 to 10 nM
- IC50 [2]: 1 to 30 nM
- IC50 [3]: 1 to 200 nM

SMILES: COCC1CCN(c2cc3c(N[C@H](C)c4cccc(C(F)(F)C(C)(C)O)c4F)nc(C)nc3c3c2CCC3)CC1 [Compound 57, (R)-1,1-difluoro-1-(2-fluoro-3-(1-((6-(4-(methoxymethyl)piperidin-1-yl)-2-methyl-8,9-dihydro-7H-cyclopenta[h]quinazolin-4-yl)amino)ethyl)phenyl)-2-methylpropan-2-ol]
- IC50 [1]: 1 to 10 nM
- IC50 [2]: 1 to 30 nM
- IC50 [3]: 1 to 200 nM

SMILES: Cc1nc(N[C@H](C)c2cc(N)cc(C(F)(F)F)c2)c2cc(N3CC[C@](C)(O)C3)c3c(c2n1)CCC3 (single isomer, unassigned) [Compound 55b]
- IC50 [1]: 11 to 20 nM
- IC50 [2]: 71 to 130 nM
- IC50 [3]: 1 to 200 nM

SMILES: COC[C@H]1CN(c2cc3c(N[C@H](C)c4cccc(C(F)(F)CO)c4F)nc(C)nc3c3c2CCC3)CCO1 [Compound 35, 2,2-difluoro-2-(2-fluoro-3-((R)-1-((6-((R)-2-(methoxymethyl)morpholino)-2-methyl-8,9-dihydro-7H-cyclopenta[h]quinazolin-4-yl)amino)ethyl)phenyl)ethan-1-ol]
- IC50 [1]: 1 to 10 nM
- IC50 [2]: 1 to 30 nM
- IC50 [3]: 1 to 200 nM

SMILES: COCC1(O)CCN(c2cc3c(N[C@H](C)c4cccc(C(F)(F)CCO)c4F)nc(C)nc3c3c2CCC3)CC1 [Compound 71, (R)-1-(4-((1-(3-(1,1-difluoro-3-hydroxypropyl)-2-fluorophenyl)ethyl)amino)-2-methyl-8,9-dihydro-7H-cyclopenta[h]quinazolin-6-yl)-4-(methoxymethyl) piperidin-4-ol]
- IC50 [1]: 1 to 10 nM
- IC50 [2]: 1 to 30 nM
- IC50 [3]: 1 to 200 nM

SMILES: Cc1nc(N[C@H](C)c2cccc(C(F)(F)CO)c2F)c2cc(N3CC[C@@H](O)C3)c3c(c2n1)CCC3 [Compound 30, (R)-1-(4-(((R)-1-(3-(1,1-difluoro-2-hydroxyethyl)-2-fluorophenyl)ethyl)amino)-2-methyl-8,9-dihydro-7H-cyclopenta[h]quinazolin-6-yl)pyrrolidin-3-ol]
- IC50 [1]: 1 to 10 nM
- IC50 [2]: 1 to 30 nM
- IC50 [3]: 1 to 200 nM

SMILES: Cc1nc(N[C@H](C)c2cc(N)cc(C(F)(F)F)c2)c2cc(N3CC4(COC4)C3)c3c(c2n1)CC(C)(C)O3 [Compound 114, (R)—N-(1-(3-amino-5-(trifluoromethyl)phenyl)ethyl)-2,8,8-trimethyl-6-(2-oxa-6-azaspiro[3.3]heptan-6-yl)-8,9-dihydrofuro[2,3-h]quinazolin-4-amine]
- IC50 [1]: 1 to 10 nM
- IC50 [2]: 31 to 70 nM
- IC50 [3]: 1 to 200 nM

SMILES: Cc1nc(N[C@H](C)c2cc(N)cc(C(F)(F)F)c2)c2cc(N3CCC(C(C)(C)O)CC3)c3c(c2n1)CCC3 [Compound 51, (R)-2-(1-(4-((1-(3-amino-5-(trifluoromethyl)phenyl)ethyl)amino)-2-methyl-8,9-dihydro-7H-cyclopenta[h]quinazolin-6-yl)piperidin-4-yl)propan-2-ol]
- IC50 [1]: 1 to 10 nM
- IC50 [2]: 1 to 30 nM
- IC50 [3]: 1 to 200 nM

SMILES: Cc1nc(N[C@H](C)c2cccc(C(F)(F)C(C)(C)O)c2F)c2cc(N3CC4(COC4)C3)c3c(c2n1)CCC3 [Compound 10, (R)-1,1-difluoro-1-(2-fluoro-3-(1-((2-methyl-6-(2-oxa-6-azaspiro[3.3]heptan-6-yl)-8,9-dihydro-7H-cyclopenta[h]quinazolin-4-yl)amino)ethyl)phenyl)-2-methylpropan-2-ol]
- IC50 [1]: 1 to 10 nM
- IC50 [2]: 1 to 30 nM
- IC50 [3]: 1 to 200 nM

SMILES: COCC1(O)CCN(c2cc3c(N[C@H](C)c4cccc(C(F)(F)C(C)(C)O)c4F)nc(C)nc3c3c2CCC3)CC1 [Compound 63, (R)-1-(4-((1-(3-(1,1-difluoro-2-hydroxy-2-methylpropyl)-2-fluorophenyl)ethyl)amino)-2-methyl-8,9-dihydro-7H-cyclopenta[h]quinazolin-6-yl)-4-(methoxymethyl)piperidin-4-ol]
- IC50 [1]: 1 to 10 nM
- IC50 [2]: 1 to 30 nM
- IC50 [3]: 1 to 200 nM

SMILES: Cc1nc(N[C@H](C)c2cc(N)cc(C(F)(F)F)c2)c2cc(N3CCNC(=O)C3)c3c(c2n1)CCC3 [Compound 53, (R)-4-(4-((1-(3-amino-5-(trifluoromethyl)phenyl)ethyl)amino)-2-methyl-8,9-dihydro-7H-cyclopenta[h]quinazolin-6-yl)piperazin-2-one]
- IC50 [1]: 1 to 10 nM
- IC50 [2]: 1 to 30 nM
- IC50 [3]: 1 to 200 nM

SMILES: Cc1nc(N[C@H](C)c2cc(N)cc(C(F)(F)F)c2)c2cc(N3CCN(C)C(=O)C3)c3c(c2n1)CCC3 [Compound 56, (R)-4-(4-((1-(3-amino-5-(trifluoromethyl)phenyl)ethyl)amino)-2-methyl-8,9-dihydro-7H-cyclopenta[h]quinazolin-6-yl)-1-methylpiperazin-2-one]
- IC50 [1]: 1 to 10 nM
- IC50 [2]: 1 to 30 nM
- IC50 [3]: 1 to 200 nM

SMILES: Cc1nc(N[C@H](C)c2cc(N)cc(C(F)(F)F)c2)c2cc(N3CC4(COC4)C3)c3c(c2n1)CCC3 [Compound 33, (R)—N-(1-(3-amino-5-(trifluoromethyl)phenyl)ethyl)-2-methyl-6-(2-oxa-6-azaspiro[3.3]heptan-6-yl)-8,9-dihydro-7H-cyclopenta[h]quinazolin-4-amine]
- IC50 [1]: 1 to 10 nM
- IC50 [2]: 1 to 30 nM
- IC50 [3]: 1 to 200 nM

SMILES: Cc1nc(N[C@H](C)c2cc(N)cc(C(F)(F)F)c2)c2cc(N3CCC(C)(O)CC3)c3c(c2n1)CCC3 [Compound 50, (R)-1-(4-((1-(3-amino-5-(trifluoromethyl)phenyl)ethyl)amino)-2-methyl-8,9-dihydro-7H-cyclopenta[h]quinazolin-6-yl)-4-methylpiperidin-4-ol]
- IC50 [1]: 1 to 10 nM
- IC50 [2]: 1 to 30 nM
- IC50 [3]: 1 to 200 nM

SMILES: COC[C@H]1CN(c2cc3c(N[C@H](C)c4cccc(C(F)(F)C(C)(C)O)c4F)nc(C)nc3c3c2CCC3)CCO1 [Compound 62, 1,1-difluoro-1-(2-fluoro-3-((R)-1-((6-((R)-2-(methoxymethyl)morpholino)-2-methyl-8,9-dihydro-7H-cyclopenta[h]quinazolin-4-yl)amino)ethyl)phenyl)-2-methylpropan-2-ol]
- IC50 [1]: 1 to 10 nM
- IC50 [2]: 1 to 30 nM
- IC50 [3]: 1 to 200 nM

SMILES: Cc1nc(NC(C)c2cc(N)cc(C(F)F)c2)c2cc(N3CC4(COC4)C3)c3c(c2n1)CCC3 (racemic) [Compound 78, (R/S)—N-(1-(3-amino-5-(difluoromethyl)phenyl)ethyl)-2-methyl-6-(2-oxa-6-azaspiro[3.3]heptan-6-yl)-8,9-dihydro-7H-cyclopenta[h]quinazolin-4-amine]
- IC50 [1]: 1 to 10 nM
- IC50 [2]: 1 to 30 nM
- IC50 [3]: 1 to 200 nM

SMILES: Cc1nc(N[C@H](C)c2cc(N)cc(C(F)(F)F)c2)c2cc(N3CCC(C)(O)C3)c3c(c2n1)CCC3 (single isomer, unassigned) [Compound 55a]
- IC50 [1]: 11 to 20 nM
- IC50 [2]: 31 to 70 nM
- IC50 [3]: 1 to 200 nM

SMILES: Cc1nc(N[C@H](C)c2cccc(C(F)(F)CO)c2F)c2cc(N3CC[C@H](O)C3)c3c(c2n1)CCC3 [Compound 22, (S)-1-(4-(((R)-1-(3-(1,1-difluoro-2-hydroxyethyl)-2-fluorophenyl)ethyl)amino)-2-methyl-8,9-dihydro-7H-cyclopenta[h]quinazolin-6-yl)pyrrolidin-3-ol]
- IC50 [1]: 1 to 10 nM
- IC50 [2]: 1 to 30 nM
- IC50 [3]: 1 to 200 nM

SMILES: Cc1nc(N[C@H](C)c2cccc(C(F)(F)C(C)(C)O)c2F)c2cc(C3(O)CCOCC3)c3c(c2n1)CCC3 [Compound 119, (R)-4-(4-((1-(3-(1,1-difluoro-2-hydroxy-2-methylpropyl)-2-fluorophenyl)ethyl)amino)-2-methyl-8,9-dihydro-7H-cyclopenta[h]quinazolin-6-yl)tetrahydro-2H-pyran-4-ol]
- IC50 [1]: 11 to 20 nM
- IC50 [2]: 31 to 70 nM
- IC50 [3]: 1 to 200 nM

SMILES: Cc1nc(N[C@H](C)c2cccc(C(F)(F)C(C)(C)O)c2F)c2cc(N3CCC(C)(CO)CC3)c3c(c2n1)CCC3 [Compound 60, (R)-1,1-difluoro-1-(2-fluoro-3-(1-((6-(4-(hydroxymethyl)-4-methylpiperidin-1-yl)-2-methyl-8,9-dihydro-7H-cyclopenta[h]quinazolin-4-yl)amino)ethyl)phenyl)-2-methylpropan-2-ol]
- IC50 [1]: 1 to 10 nM
- IC50 [2]: 1 to 30 nM
- IC50 [3]: 1 to 200 nM
